Reference: publication PMC7759869 (Biomedicines, 2020)

Key:
aldehyde oxidase = target: T1, aldehyde oxidase (Homo sapiens, UniProt Q06278); assay: Oxidation of cabozantinib by recombinant aldehyde oxidase; assay type: in vitro ADME; settings: human recombinant enzyme, data not shown
T1 construct: purchased Gentest Corp., Woburn, MA, USA; host or cells: insect cells (baculovirus)
T1 sequence (Q06278 1-1338): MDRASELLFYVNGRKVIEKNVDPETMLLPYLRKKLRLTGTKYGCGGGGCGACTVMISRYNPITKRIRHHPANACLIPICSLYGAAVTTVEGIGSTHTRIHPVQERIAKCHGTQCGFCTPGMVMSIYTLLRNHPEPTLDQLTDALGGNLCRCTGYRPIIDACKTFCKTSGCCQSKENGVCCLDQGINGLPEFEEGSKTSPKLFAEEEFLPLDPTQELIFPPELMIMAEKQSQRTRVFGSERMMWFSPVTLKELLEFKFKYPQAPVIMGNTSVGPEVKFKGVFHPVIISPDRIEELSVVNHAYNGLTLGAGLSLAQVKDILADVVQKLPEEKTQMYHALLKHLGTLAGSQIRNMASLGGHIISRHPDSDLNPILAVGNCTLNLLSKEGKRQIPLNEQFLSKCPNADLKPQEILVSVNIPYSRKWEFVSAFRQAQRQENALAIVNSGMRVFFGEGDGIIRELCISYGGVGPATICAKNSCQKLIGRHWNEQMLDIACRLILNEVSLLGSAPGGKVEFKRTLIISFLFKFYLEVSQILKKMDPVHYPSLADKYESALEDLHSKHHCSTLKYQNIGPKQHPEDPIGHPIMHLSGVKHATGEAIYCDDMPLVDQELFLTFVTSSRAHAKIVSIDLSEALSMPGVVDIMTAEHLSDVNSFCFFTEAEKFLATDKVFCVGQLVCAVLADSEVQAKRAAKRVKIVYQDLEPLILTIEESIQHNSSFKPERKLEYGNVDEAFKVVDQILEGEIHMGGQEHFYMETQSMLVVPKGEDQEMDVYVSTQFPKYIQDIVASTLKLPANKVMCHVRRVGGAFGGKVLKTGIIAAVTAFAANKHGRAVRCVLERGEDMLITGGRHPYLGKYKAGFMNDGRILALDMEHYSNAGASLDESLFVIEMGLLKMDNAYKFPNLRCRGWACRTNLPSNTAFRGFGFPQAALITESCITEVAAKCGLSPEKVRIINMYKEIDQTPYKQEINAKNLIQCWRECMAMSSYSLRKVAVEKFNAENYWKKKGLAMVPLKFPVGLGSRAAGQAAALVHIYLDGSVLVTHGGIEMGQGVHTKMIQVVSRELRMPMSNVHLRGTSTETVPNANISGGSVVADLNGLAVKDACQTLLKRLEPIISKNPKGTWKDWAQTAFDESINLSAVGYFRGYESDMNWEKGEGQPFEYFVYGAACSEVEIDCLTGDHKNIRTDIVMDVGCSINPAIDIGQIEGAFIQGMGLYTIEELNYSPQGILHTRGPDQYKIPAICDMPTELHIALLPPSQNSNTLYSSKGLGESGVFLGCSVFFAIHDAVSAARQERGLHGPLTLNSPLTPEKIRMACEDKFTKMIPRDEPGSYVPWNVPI

FMO5 = target: T2, FMO5 (Homo sapiens, UniProt P49326); assay: Oxidation of cabozantinib by recombinant FMO5; assay type: in vitro ADME; settings: human recombinant enzyme, data not shown
T2 construct: purchased Gentest Corp., Woburn, MA, USA; host or cells: insect cells (baculovirus)
T2 sequence (P49326 1-533): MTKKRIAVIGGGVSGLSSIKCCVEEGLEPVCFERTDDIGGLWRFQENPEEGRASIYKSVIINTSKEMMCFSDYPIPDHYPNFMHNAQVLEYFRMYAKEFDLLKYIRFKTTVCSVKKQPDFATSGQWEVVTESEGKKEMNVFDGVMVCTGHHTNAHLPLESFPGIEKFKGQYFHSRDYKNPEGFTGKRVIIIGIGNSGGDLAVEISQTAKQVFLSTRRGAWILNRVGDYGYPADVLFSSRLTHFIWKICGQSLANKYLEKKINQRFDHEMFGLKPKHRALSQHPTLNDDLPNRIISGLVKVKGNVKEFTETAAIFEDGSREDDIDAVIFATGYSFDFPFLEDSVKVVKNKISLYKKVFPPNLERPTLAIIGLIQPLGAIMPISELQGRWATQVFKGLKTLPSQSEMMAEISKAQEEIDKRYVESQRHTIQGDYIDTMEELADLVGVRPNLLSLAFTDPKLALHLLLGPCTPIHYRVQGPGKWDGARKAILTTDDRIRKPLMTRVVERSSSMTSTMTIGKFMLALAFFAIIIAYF

RET = settings: estimated; cited from earlier work
CYP3A4 = CYP3A4 (Homo sapiens, UniProt P08684); settings: cited from earlier work
[1] = design: method as in earlier work; settings: cited from earlier work
MET = settings: read-out: IC50 for MET; estimated; cited from earlier work

Chain of CYP3A4 (P08684 whole entry): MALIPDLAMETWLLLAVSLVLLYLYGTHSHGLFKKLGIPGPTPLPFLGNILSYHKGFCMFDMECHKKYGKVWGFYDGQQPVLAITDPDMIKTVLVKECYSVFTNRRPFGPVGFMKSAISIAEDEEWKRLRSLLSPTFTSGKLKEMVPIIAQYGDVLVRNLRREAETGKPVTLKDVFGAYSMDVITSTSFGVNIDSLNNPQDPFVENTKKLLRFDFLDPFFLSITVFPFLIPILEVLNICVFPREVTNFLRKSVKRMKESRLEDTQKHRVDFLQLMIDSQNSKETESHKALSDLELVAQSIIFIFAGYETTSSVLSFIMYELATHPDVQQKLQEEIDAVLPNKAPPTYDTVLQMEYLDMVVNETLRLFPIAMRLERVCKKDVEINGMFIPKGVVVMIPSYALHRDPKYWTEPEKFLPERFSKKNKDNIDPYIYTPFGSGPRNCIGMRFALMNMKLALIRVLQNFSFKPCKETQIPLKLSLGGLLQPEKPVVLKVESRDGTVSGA

For `COc1cc2nccc(Oc3ccc(NC(=O)C4(C(=O)Nc5ccc(F)cc5)CC4)cc3)c2cc1OC` [cabozantinib, N′1-{4-[(6,7-dimethoxyquinolin-4-yl)oxy]phenyl}-N1-(4-fluorophenyl)cyclopropane-1,1-dicarboxamide], the “Oxidation of cabozantinib by aldehyde oxidase” value (aldehyde oxidase) is listed as “ineffective”, the “Oxidation of cabozantinib by FMO 5” value (FMO5) is listed as “ineffective” and the IC50 (RET) is listed as […]. For the same molecule, the “Inhibition of CYP3A4-mediated testosterone 6β-hydroxylation” value (CYP3A4) was “did not inhibit”, the “Bound by proteins in human plasma” value [1] was ≥ 99.7% and the IC50 (MET) was 2 nM.
